Columns and labels:
K-562 cells [1] = assay: antiproliferation assay, K-562; assay type: cell-based; details: Homo sapiens, K562
Method: (§1) For the antiproliferation assay, NCI-H460 (large cell lung carcinoma) or M14 (amelanotic melanoma) cells were grown in RPMI-1640 with 10% FBS supplemented with L-glutamine and HEPES. Cells were seeded into 96-well plates at 5×10^2 to 5×10^4 cells/well and allowed to adhere overnight; the medium was then removed. A stock solution of test compound in DMSO was diluted in medium to generate a series of working solutions. Aliquots (100 μl) of the working solutions were then added to the appropriate test wells to expose cells to the final concentrations of compound in a total volume of 100 μl. Seven different concentrations were tested, with 2-5 wells per concentration. Camptothecin was used as a positive control; wells containing vehicle without compound were used as negative controls. Plates were kept for 72 h in a 37° C., 5% CO2 incubator. After incubation, viable cells were detected with the CELLTITER 96 AQueous Non-Radioactive Cell Proliferation Assay (Promega), and IC50 values were determined using GraphPad Prism 5 software.
(§2) Antiproliferation of several of the active compounds was tested against additional cell lines.

LOX-IMVI cells = assay: antiproliferation assay, LOX-IMVI; assay type: cell-based; details: Homo sapiens
Method: as §1, §2

MES-SA/Dx5 cells = assay: antiproliferation assay, MES-SA/Dx5; assay type: cell-based; details: Homo sapiens
Method: as §1, §2
(§3) Compound 4 was tested for antiproliferation activity against several paclitaxel-resistant human cancer cell lines.

NCI-H187 cells = assay: antiproliferation assay, NCI-H187; assay type: cell-based; details: Homo sapiens
Method: as §1, §2

EKVX cells [2] = assay: antiproliferation assay, paclitaxel-resistant EKVX; assay type: cell-based; details: Homo sapiens
Method: as §1, §3

DLD-1 cells = assay: antiproliferation assay, paclitaxel-resistant DLD-1; assay type: cell-based; details: Homo sapiens
Method: as §1, §3

ACHN cells [3] = assay: antiproliferation assay, paclitaxel-resistant ACHN; assay type: cell-based; details: Homo sapiens
Method: as §1, §3

TK-10 cells [4] = assay: antiproliferation assay, paclitaxel-resistant TK-10; assay type: cell-based; details: Homo sapiens
Method: as §1, §3

[5] = tested on: LOX-IMVI (melanoma) xenograft tumors; assay: tumor growth inhibition, LOX-IMVI murine xenograft model; assay type: in vivo, mice
Method: Tumor growth inhibition of compound 4 was measured in several murine xenograft models, and the results of individual experiments are listed in Table 14. Tumors were initiated by subcutaneous injection of either tumor cells from cell culture or tumor fragments from continuous in vivo passage. When tumors reached volumes between approximately 100 and 200 mm^3, the mice were divided into vehicle and treatment groups. Compound or vehicle was administered by IP injection in a volume of 5-10 mL/kg.
Changes in tumor weight (delta weights) for each treated (T) and control (C) group are calculated for each day tumors are measured by subtracting the median tumor weight on the first day of treatment (staging day) from the median tumor weight on the specified observation day. These values are used to calculate a percent T/C as follows: % T/C=(delta T/delta C)×100. The optimal T/C is the minimal value obtained after the first treatment.

A549 cells = assay: NCI-60 panel antiproliferation, A549; assay type: cell-based, human; details: Homo sapiens, NCI 60-cell panel
Method: (§4) Bifidenone and Compound 37 were tested for antiproliferation activity against the NCI-60 panel of cancer cell lines. COMPARE analysis was then conducted to compare the activity “fingerprint” of bifidenone to those of known classes of compounds (Zhou, B.-N., Hoch, J. M., Johnson, R. K., Mattern, M. R., Eng, W.-K., Ma, J., Hecht, S. M., Newman, D. J., Kingston, D. G. I., 2000. Use of COMPARE Analysis to Discover New Natural Product Drugs: Isolation of Camptothecin and 9-Methoxycamptothecin from a New Source. Journal of Natural Products 63, 1273-1276.).

ACHN cells [6] = assay: NCI-60 panel antiproliferation, ACHN; assay type: cell-based, human; details: Homo sapiens, NCI 60-cell panel
Method: as §4

BT-549 cells = assay: NCI-60 panel antiproliferation, BT-549; assay type: cell-based, human; details: Homo sapiens, NCI 60-cell panel
Method: as §4

EKVX cells [7] = assay: NCI-60 panel antiproliferation, EKVX; assay type: cell-based, human; details: Homo sapiens, NCI 60-cell panel
Method: as §4

HCC-2998 cells = assay: NCI-60 panel antiproliferation, HCC-2998; assay type: cell-based, human; details: Homo sapiens, NCI 60-cell panel
Method: as §4

HOP-62 cells = assay: NCI-60 panel antiproliferation, HOP-62; assay type: cell-based, human; details: Homo sapiens, NCI 60-cell panel
Method: as §4

HOP-92 cells = assay: NCI-60 panel antiproliferation, HOP-92; assay type: cell-based, human; details: Homo sapiens, NCI 60-cell panel
Method: as §4

K-562 cells [8] = assay: NCI-60 panel antiproliferation, K-562; assay type: cell-based, human; details: Homo sapiens, K562, NCI 60-cell panel
Method: as §4

LOX IMVI cells = assay: NCI-60 panel antiproliferation, LOX IMVI; assay type: cell-based, human; details: Homo sapiens, NCI 60-cell panel
Method: as §4

MDA-MB-435 cells = assay: NCI-60 panel antiproliferation, MDA-MB-435; assay type: cell-based, human; details: Homo sapiens, NCI 60-cell panel
Method: as §4

NCI-H226 cells = assay: NCI-60 panel antiproliferation, NCI-H226; assay type: cell-based, human; details: Homo sapiens, NCI 60-cell panel
Method: as §4

OVCAR-3 cells = assay: NCI-60 panel antiproliferation, OVCAR-3; assay type: cell-based, human; details: Homo sapiens, NCI 60-cell panel
Method: as §4

PC-3 cells = assay: NCI-60 panel antiproliferation, PC-3; assay type: cell-based, human; details: Homo sapiens, NCI 60-cell panel
Method: as §4

SF-295 cells = assay: NCI-60 panel antiproliferation, SF-295; assay type: cell-based, human; details: Homo sapiens, NCI 60-cell panel
Method: as §4

SK-Mel-5 cells = assay: NCI-60 panel antiproliferation, SK-MEL-5; assay type: cell-based, human; details: Homo sapiens, NCI 60-cell panel
Method: as §4

SK-MEL-28 cells = assay: NCI-60 panel antiproliferation, SK-MEL-28; assay type: cell-based, human; details: Homo sapiens, NCI 60-cell panel
Method: as §4

SK-OV-3 cells = assay: NCI-60 panel antiproliferation, SK-OV-3; assay type: cell-based, human; details: Homo sapiens, NCI 60-cell panel
Method: as §4

SW-620 cells = assay: NCI-60 panel antiproliferation, SW-620; assay type: cell-based, human; details: Homo sapiens, NCI 60-cell panel
Method: as §4

TK-10 cells [9] = assay: NCI-60 panel antiproliferation, TK-10; assay type: cell-based, human; details: Homo sapiens, NCI 60-cell panel
Method: as §4

U251 cells = assay: NCI-60 panel antiproliferation, U251; assay type: cell-based, human; details: Homo sapiens, U-251, NCI 60-cell panel
Method: as §4

UO-31 cells = assay: NCI-60 panel antiproliferation, UO-31; assay type: cell-based, human; details: Homo sapiens, NCI 60-cell panel
Method: as §4

786-0 cells = assay: NCI-60 panel antiproliferation, 786-0; assay type: cell-based, human; details: Homo sapiens, NCI 60-cell panel
Method: as §4

[10] = IP 30 mg/kg, days 0,1,2,3,4,5,6

`C=CC[C@H]1C[C@]2([C@H](C)Cc3cc(O)c(OC)cc3F)OCOC2=CC1=O` (relative stereo) [Compound 4, 6-allyl-7a-(1-(2-fluoro-5-hydroxy-4-methoxyphenyl)propan-2-yl)-7,7a-dihydrobenzo[d][1,3]dioxol-5(6H)-one] showed an IC50 (K-562 cells [1]) of 13 nM, an IC50 (LOX-IMVI cells) of 11 nM and an IC50 (MES-SA/Dx5 cells; MES-SA/Dx5, MES-SA/Dx5) of 13 nM. The IC50 (MES-SA/Dx5 cells; MES-SA/Dx5, paclitaxel-resistant MES-SA/Dx5) was 14 nM, the IC50 (NCI-H187 cells) was 21 nM and the IC50 (EKVX cells [2]) was 7 nM. For the same compound, the IC50 (DLD-1 cells) was < 5 nM, the IC50 (ACHN cells [3]) was 15 nM and the IC50 (TK-10 cells [4]) was 7 nM. The “Maximum Mean Body Weight Loss” value ([5]; IP 30 mg/kg, days 0,1,2,3,4,5) was 7%, the “Optimal T/C” value ([5]; IP 30 mg/kg, days 0,1,2,3,4,5) was 31% and the “Maximum Mean Body Weight Loss” value [5, 10] was 6%. For the same compound, the “Optimal T/C” value [5, 10] was 36%, the “Maximum Mean Body Weight Loss” value ([5]; IP 40 mg/kg, days 0,1,2,5,6,7) was 9% and the “Optimal T/C” value ([5]; IP 40 mg/kg, days 0,1,2,5,6,7) was 39%.
With `C=CC[C@H]1C[C@]2([C@@H](C)Cc3ccc(OC)c(F)c3)OCOC2=CC1=O` [Compound 37, (6S,7aR)-6-allyl-7a-((S)-1-(3-fluoro-4-methoxyphenyl)propan-2-yl)-7,7a-dihydrobenzo[d][1,3]dioxol-5(6H)-one] the IC50 (A549 cells) was 55 nM, the IC50 (ACHN cells [6]) was 32 nM and the IC50 (BT-549 cells) was 63 nM. The IC50 (EKVX cells [7]) was 149 nM, the IC50 (HCC-2998 cells) was 129 nM and the IC50 (HOP-62 cells) was 102 nM. The IC50 (HOP-92 cells) was > 10000 nM, the IC50 (K-562 cells [8]) was 43 nM and the IC50 (LOX IMVI cells) was 27 nM. For the same compound, the IC50 (MDA-MB-435 cells) was 28 nM, the IC50 (NCI-H226 cells) was 141 nM and the IC50 (OVCAR-3 cells) was 40 nM. For the same compound, the IC50 (PC-3 cells) was 70 nM, the IC50 (SF-295 cells) was 48 nM and the IC50 (SK-Mel-5 cells) was 60 nM. It also gave an IC50 (SK-MEL-28 cells) of 37 nM, an IC50 (SK-OV-3 cells) of 39 nM and an IC50 (SW-620 cells) of 47 nM. It also gave an IC50 (TK-10 cells [9]) of 107 nM, an IC50 (U251 cells) of 123 nM and an IC50 (UO-31 cells) of 65 nM. The IC50 (786-0 cells) was 120 nM.

Source: patent publication US9562031B1, “Phenethyldihydrobenzodioxolones and methods of use” (Sequoia Sciences, Inc., priority 2015, dated 2017)
